Experimental data reported in patent publication US20230416228A1 (Forkhead Biotherapeutics, Inc., priority 2020, published 2023).

molecular target: T1, human FOXO1 (constitutively active form Thr24Ala, Ser256Ala, Ser319Ala) (Homo sapiens, UniProt Q12778, S256A/S319A/T24A); assay: FOXO1 inhibitor activity assay: cell-based transcriptional (luciferase) reporter assay in HEK293 cells; details: HEK293 cells transfected with insulin response element firefly luciferase reporter, FOXO1 and Renilla luciferase; 10-point dose response 50 μM to 2.5 nM; 24 hours
T1 construct: expressed in transfected cells; host or cells: HEK293 cells transfected with pcDNA3.1 plasmid
Procedure, shortened: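 IC50 and maximal inhibition were fitted by 4-parameter logistic regression on normalized firefly/Renilla luciferase ratios. The 0% reference used RFP in place of FOXO1, and the 100% reference was DMSO-only with all plasmids.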

T1 sequence (Q12778 whole entry T24A/S256A/S319A): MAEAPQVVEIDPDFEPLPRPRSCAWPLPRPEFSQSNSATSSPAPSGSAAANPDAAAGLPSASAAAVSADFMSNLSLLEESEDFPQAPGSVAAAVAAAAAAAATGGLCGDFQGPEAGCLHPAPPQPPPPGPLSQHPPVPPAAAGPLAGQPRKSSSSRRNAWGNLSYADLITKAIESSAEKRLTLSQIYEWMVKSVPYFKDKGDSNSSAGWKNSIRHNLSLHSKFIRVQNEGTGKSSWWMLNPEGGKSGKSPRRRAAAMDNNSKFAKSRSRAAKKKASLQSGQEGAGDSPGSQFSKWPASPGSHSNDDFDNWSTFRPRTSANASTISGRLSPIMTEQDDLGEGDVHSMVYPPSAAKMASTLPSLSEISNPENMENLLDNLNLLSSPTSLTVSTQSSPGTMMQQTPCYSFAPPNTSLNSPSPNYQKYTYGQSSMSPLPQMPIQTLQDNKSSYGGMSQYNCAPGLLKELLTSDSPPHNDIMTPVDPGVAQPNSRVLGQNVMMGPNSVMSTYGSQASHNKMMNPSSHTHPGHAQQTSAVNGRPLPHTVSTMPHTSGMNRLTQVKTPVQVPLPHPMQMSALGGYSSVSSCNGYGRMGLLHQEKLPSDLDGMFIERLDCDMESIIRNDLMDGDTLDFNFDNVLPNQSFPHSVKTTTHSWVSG

SMILES	IC50
O=C(Nc1cc(-c2nc3ccccc3[nH]2)[nH]n1)c1ccc(N2CCOCC2)nc1 [Compound A-41, N-[5-(1H-benzimidazol-2-yl)-1H-pyrazol-3-yl]-6-morpholino-pyridine-3-carboxamide]	< 100 nM
COc1cc(F)c2[nH]c(-c3cc(NC(=O)c4ccc(N5CCC(OC)CC5)nc4)n[nH]3)nc2c1 [Compound A-193, N-[5-(7-fluoro-5-methoxy-1H-benzimidazol-2-yl)-1H-pyrazol-3-yl]-6-(4-methoxy-1-piperidyl)pyridine-3-carboxamide]	> 1000 nM
O=C(Nc1cc(-c2nc3ccccc3[nH]2)[nH]n1)c1ccc(N2CCC(CO)CC2)nc1 [Compound A-67, N-[5-(1H-benzimidazol-2-yl)-1H-pyrazol-3-yl]-6-[4-(hydroxymethyl)-1-piperidyl]pyridine-3-carboxamide]	< 100 nM
Cc1nc(N2CCN(C3COC3)CC2)ccc1C(=O)Nc1cc(-c2nc3ccccc3[nH]2)n(C)n1 [Compound A-264, N-[5-(1H-benzimidazol-2-yl)-1-methyl-pyrazol-3-yl]-2-methyl-6-[4-(oxetan-3-yl)piperazin-1-yl]pyridine-3-carboxamide]	300 to 1000 nM
Cn1nc(NC(=O)c2ccc(N3CCNCC3)nc2)cc1-c1nc2ccccc2[nH]1 [Compound A-216, N-[5-(1H-benzimidazol-2-yl)-1-methyl-pyrazol-3-yl]-6-piperazin-1-yl-pyridine-3-carboxamide]	100 to 300 nM
O=C(Nc1cc(-c2nc3ccccc3[nH]2)[nH]n1)c1ccc(N2CC[C@H](O)C2)cc1 [Compound A-43, N-[5-(1H-benzimidazol-2-yl)-1H-pyrazol-3-yl]-4-[(3S)-3-hydroxy-pyrrolidin-1-yl]benzamide]	< 100 nM
COCCOc1ccc(C(=O)Nc2cc(-c3nc4ccccc4[nH]3)[nH]n2)cc1F [Compound A-103, N-[5-(1H-benzimidazol-2-yl)-1H-pyrazol-3-yl]-3-fluoro-4-(2-methoxy-ethoxy)benzamide]	< 100 nM
Cn1nc(NC(=O)c2ccc(N3CCN(CCO)CC3)nc2)cc1-c1nc2ccccc2[nH]1 [Compound A-204, N-[5-(1H-benzimidazol-2-yl)-1-methyl-pyrazol-3-yl]-6-[4-(2-hydroxy-ethyl)piperazin-1-yl]pyridine-3-carboxamide]	100 to 300 nM
C[C@@H]1CN(c2ccc(C(=O)Nc3cc(-c4nc5ccccc5[nH]4)n(C)n3)cn2)CCN1 [Compound A-247, N-[5-(1H-benzimidazol-2-yl)-1-methyl-pyrazol-3-yl]-6-[(3R)-3-methylpiperazin-1-yl]pyridine-3-carboxamide]	< 100 nM
O=C(Nc1cc(-c2nc3cc(Cl)ccc3[nH]2)[nH]n1)c1ccc(N2CCC(O)CC2)nc1 [Compound A-87, N-[5-(5-chloro-1H-benzimidazol-2-yl)-1H-pyrazol-3-yl]-6-(4-hydroxy-1-piperidyl)pyridine-3-carboxamide]	> 1000 nM
COCCN1CCN(c2ccc(C(=O)Nc3cc(-c4nc5cc(OC)cc(F)c5[nH]4)n(C)n3)cn2)CC1 [Compound A-190, N-[5-(7-fluoro-5-methoxy-1H-benzimidazol-2-yl)-1-methyl-pyrazol-3-yl]-6-[4-(2-methoxyethyl)piperazin-1-yl]pyridine-3-carboxamide]	< 100 nM
CC1CN(c2ccc(C(=O)Nc3cc(-c4nc5ccccc5[nH]4)n(C)n3)cn2)CC(CO)O1 (single isomer, unassigned) [Compound A-293, N-[5-(1H-benzimidazol-2-yl)-1-methyl-pyrazol-3-yl]-6-[2-(hydroxymethyl)-6-methyl-morpholin-4-yl]pyridine-3-carboxamide]	100 to 300 nM
O=C(Nc1cc(-c2nc3cc(Br)ccc3[nH]2)[nH]n1)c1ccc(N2CCC(CO)CC2)nc1 [Compound A-89, N-[5-(5-bromo-1H-benzimidazol-2-yl)-1H-pyrazol-3-yl]-6-[4-(hydroxymethyl)-1-piperidyl]pyridine-3-carboxamide]	> 1000 nM
Cn1nc(NC(=O)c2ccc(N3CCN4CCCC4C3)nc2)cc1-c1nc2ccccc2[nH]1 (stereo not shown) [Compound A-279]	< 100 nM
COc1cc(F)c2[nH]c(-c3cc(NC(=O)c4ccc(N5CCOC(CO)C5)nc4)nn3C)nc2c1 (stereo not shown) [Compound A-237, N-[5-(7-fluoro-5-methoxy-1H-benzimidazol-2-yl)-1-methyl-pyrazol-3-yl]-6-[2-(hydroxymethyl)morpholin-4-yl]pyridine-3-carboxamide]	< 100 nM
C[C@H](CO)Nc1ccc(C(=O)Nc2cc(-c3nc4ccccc4[nH]3)[nH]n2)cn1 [Compound A-63, N-[5-(1H-benzimidazol-2-yl)-1H-pyrazol-3-yl]-6-[[(1R)-2-hydroxy-1-methyl-ethyl]amino]pyridine-3-carboxamide]	> 1000 nM
Cn1nc(NC(=O)c2ccc(N3CCN(C4COC4)CC3)nc2)cc1-c1nc2ccccc2[nH]1 [Compound A-203, N-[5-(1H-benzimidazol-2-yl)-1-methyl-pyrazol-3-yl]-6-[4-(oxetan-3-yl)piperazin-1-yl]pyridine-3-carboxamide]	100 to 300 nM

SMILES	IC50
COCCN1CCN(c2ccc(C(=O)Nc3cc(-c4nc5ccccc5[nH]4)n(CCOC)n3)cn2)CC1 [Compound A-178, N-[5-(1H-benzimidazol-2-yl)-1-(2-methoxyethyl)pyrazol-3-yl]-6-[4-(2-methoxyethyl)piperazin-1-yl]pyridine-3-carboxamide]	300 to 1000 nM
Cn1nc(NC(=O)c2ccc(N3CC4CCC(C3)N4)nc2)cc1-c1nc2ccccc2[nH]1 [Compound A-286, N-[5-(1H-benzimidazol-2-yl)-1-methyl-pyrazol-3-yl]-6-(3,8-diazabicyclo[3.2.1]octan-3-yl)pyridine-3-carboxamide]	100 to 300 nM
O=C(Nc1cc(-c2nc3cc(F)ccc3[nH]2)[nH]n1)c1ccc(N2CCOCC2)nc1 [Compound A-82, N-[5-(5-fluoro-1H-benzimidazol-2-yl)-1H-pyrazol-3-yl]-6-morpholino-pyridine-3-carboxamide]	< 100 nM
O=C(Nc1cc(-c2nc3ccccc3[nH]2)[nH]n1)c1ccc(N2CCC(O)CC2)cc1 [Compound A-36, N-[5-(1H-benzimidazol-2-yl)-1H-pyrazol-3-yl]-4-(4-hydroxy-1-piperidyl)-benzamide]	< 100 nM
COCCn1nc(NC(=O)c2ccc(OC)c(Cl)c2)cc1-c1nc2ccccc2[nH]1 [Compound A-175, N-[5-(1H-benzimidazol-2-yl)-1-(2-methoxyethyl)pyrazol-3-yl]-3-chloro-4-methoxy-benzamide]	> 1000 nM
CC1CN(c2ccc(C(=O)Nc3cc(-c4nc5ccccc5[nH]4)n(C)n3)cn2)CC(CO)O1 (single isomer, unassigned) [Compound A-295, N-[5-(1H-benzimidazol-2-yl)-1-methyl-pyrazol-3-yl]-6-[2-(hydroxymethyl)-6-methyl-morpholin-4-yl]pyridine-3-carboxamide]	< 100 nM
COc1ccc(Nc2nccc(-c3nc4ccccc4[nH]3)n2)cc1Cl [Compound A-92, 4-(1H-benzimidazol-2-yl)-N-(3-chloro-4-methoxy-phenyl)pyrimidin-2-amine]	> 1000 nM
COC1CCN(c2ccc(C(=O)Nc3cc(-c4nc5ccccc5[nH]4)[nH]n3)cn2)CC1 [Compound A-159, N-[5-(1H-benzimidazol-2-yl)-1H-pyrazol-3-yl]-6-(4-methoxy-1-piperidyl)-pyridine-3-carboxamide]	< 100 nM
Cn1nc(NC(=O)c2ccc(N3CCC(N4CCOCC4)CC3)nn2)cc1-c1nc2ccccc2[nH]1 [Compound A-207, N-[5-(1H-benzimidazol-2-yl)-1-methyl-pyrazol-3-yl]-6-(4-morpholino-1-piperidyl)pyridazine-3-carboxamide]	300 to 1000 nM
COCCN1CCN(c2ccc(C(=O)Nc3cc(-c4nc5ccccc5[nH]4)n(CCO)n3)cn2)CC1 [Compound A-198, N-[5-(1H-benzimidazol-2-yl)-1-(2-hydroxyethyl)pyrazol-3-yl]-6-[4-(2-methoxyethyl)piperazin-1-yl]pyridine-3-carboxamide]	300 to 1000 nM
Cn1nc(NC(=O)c2ccc(N3CCC(CO)CC3)nc2)cc1-c1nc2ccccc2[nH]1 [Compound A-96, N-[5-(1H-benzimidazol-2-yl)-1-methyl-pyrazol-3-yl]-6-[4-(hydroxy-methyl)-1-piperidyl]pyridine-3-carboxamide]	< 100 nM
COc1cc(C(=O)Nc2cc(-c3nc4ccccc4[nH]3)[nH]n2)ccc1OCCO [Compound A-120, N-[5-(1H-benzimidazol-2-yl)-1H-pyrazol-3-yl]-4-(2-hydroxyethoxy)-3-methoxy-benzamide]	300 to 1000 nM
Cn1nc(NC(=O)c2cnc(N3CCC(N4CCOCC4)CC3)cn2)cc1-c1nc2ccccc2[nH]1 [Compound A-205, N-[5-(1H-benzimidazol-2-yl)-1-methyl-pyrazol-3-yl]-5-(4-morpholino-1-piperidyl)pyrazine-2-carboxamide]	300 to 1000 nM
CC(=O)N1CCN(c2ccc(C(=O)Nc3cc(-c4nc5ccccc5[nH]4)n(C)n3)cn2)CC1CO (stereo not shown) [Compound A-254, 6-14-acetyl-3-(hydroxymethyl)piperazin-1-yl-N-[5-(1H-benzimidazol-2-yl)-1-methyl-pyrazol-3-yl]pyridine-3-carboxamide]	> 1000 nM
COc1ccc(C(=O)Nc2cc(-c3nc4ccccc4[nH]3)[nH]n2)cc1F [Compound A-124, N-[5-(1H-benzimidazol-2-yl)-1H-pyrazol-3-yl]-3-fluoro-4-methoxy-benzamide]	< 100 nM
CC(C)C(=O)N1CCN(c2ccc(C(=O)Nc3cc(-c4nc5ccccc5[nH]4)n(C)n3)cn2)CC1 [Compound A-244, N-[5-(1H-benzimidazol-2-yl)-1-methyl-pyrazol-3-yl]-6-[4-(2-methylpropanoyl)piperazin-1-yl]pyridine-3-carboxamide]	100 to 300 nM
Cn1nc(NC(=O)c2ccc(OCCO)c(Cl)c2)cc1-c1nc2cccc(F)c2[nH]1 [Compound A-165, 3-chloro-N-[5-(7-fluoro-1H-benzimidazol-2-yl)-1-methyl-pyrazol-3-yl]-4-(2-hydroxyethoxy)benzamide]	< 100 nM
